Experimental data from ChEMBL document CHEMBL1201862, “PubChem BioAssay data set” (2004).
Calls of active or inactive are those of the source.

Key:
[1] = target: Arf-GAP with SH3 domain, ANK repeat and PH domain-containing protein 1 (Homo sapiens, UniProt Q9ULH1); type: functional;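 also: biochemical fluorescence polarization dose–response screen measuring inhibition of ASAP1; ASAP1 GAP domain stimulating GTP hydrolysis by truncated human ARF1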
[2] = target: T1, Calpain-2 catalytic subunit (Sus scrofa, UniProt P43367); assay: m-calpain protease blockers, concentration series – biochemical, fluorogenic peptide substrate, dose response (AID 1420); type: functional
T1 sequence (P43367 whole entry): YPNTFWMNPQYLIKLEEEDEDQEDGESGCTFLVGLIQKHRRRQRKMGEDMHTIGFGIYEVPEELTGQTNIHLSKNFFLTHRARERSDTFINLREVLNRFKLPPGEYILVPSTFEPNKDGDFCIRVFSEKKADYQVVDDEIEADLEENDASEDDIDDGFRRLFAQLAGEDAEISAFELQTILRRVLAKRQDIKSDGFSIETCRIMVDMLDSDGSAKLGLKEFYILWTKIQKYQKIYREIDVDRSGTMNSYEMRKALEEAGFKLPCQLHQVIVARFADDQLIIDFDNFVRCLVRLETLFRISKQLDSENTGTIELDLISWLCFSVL

[3] = target: DNA repair protein RAD52 homolog (Homo sapiens, UniProt P43351); type: functional, biochemical
Protein RecA = target: T2, Protein RecA (Mycobacterium tuberculosis, UniProt P9WHJ3); assay: Fluorescence Cell-Free Homogeneous Dose Retest to Identify Inhibitors of RecA-Intein Splicing Activity. [Related pubchem assays (depositor defined):AID2097, AID2223, AID489010, AID492950]; type: functional
T2 sequence (P9WHJ3 whole entry): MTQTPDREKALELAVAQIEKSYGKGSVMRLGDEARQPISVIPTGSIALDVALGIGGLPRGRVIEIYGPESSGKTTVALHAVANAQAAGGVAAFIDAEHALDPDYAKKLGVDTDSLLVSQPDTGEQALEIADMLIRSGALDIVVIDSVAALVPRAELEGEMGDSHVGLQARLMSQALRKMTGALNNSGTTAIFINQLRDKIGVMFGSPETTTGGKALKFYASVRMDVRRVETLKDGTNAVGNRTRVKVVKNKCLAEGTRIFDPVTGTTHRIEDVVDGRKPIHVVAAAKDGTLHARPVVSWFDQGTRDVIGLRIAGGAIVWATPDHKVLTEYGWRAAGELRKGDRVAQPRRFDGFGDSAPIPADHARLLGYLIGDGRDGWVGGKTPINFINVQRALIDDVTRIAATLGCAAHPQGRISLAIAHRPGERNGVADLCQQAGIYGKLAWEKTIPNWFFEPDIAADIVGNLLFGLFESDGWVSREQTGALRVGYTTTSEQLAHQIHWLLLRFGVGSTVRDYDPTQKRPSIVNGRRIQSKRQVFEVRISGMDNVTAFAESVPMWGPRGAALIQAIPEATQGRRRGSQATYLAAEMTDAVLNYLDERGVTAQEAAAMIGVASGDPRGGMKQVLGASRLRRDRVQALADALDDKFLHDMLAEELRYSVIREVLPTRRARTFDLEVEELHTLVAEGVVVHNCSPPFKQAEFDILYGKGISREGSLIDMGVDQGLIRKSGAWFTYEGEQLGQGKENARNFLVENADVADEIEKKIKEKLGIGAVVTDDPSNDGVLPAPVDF

[4] = target: T3, Replicative DNA helicase DnaB (Mycobacterium tuberculosis, UniProt P9WMR3); assay: DnaB intein splicing inhibitors, dose response, biochemical, cell-free fluorescence (AID 449749); type: functional
T3 sequence (P9WMR3 whole entry): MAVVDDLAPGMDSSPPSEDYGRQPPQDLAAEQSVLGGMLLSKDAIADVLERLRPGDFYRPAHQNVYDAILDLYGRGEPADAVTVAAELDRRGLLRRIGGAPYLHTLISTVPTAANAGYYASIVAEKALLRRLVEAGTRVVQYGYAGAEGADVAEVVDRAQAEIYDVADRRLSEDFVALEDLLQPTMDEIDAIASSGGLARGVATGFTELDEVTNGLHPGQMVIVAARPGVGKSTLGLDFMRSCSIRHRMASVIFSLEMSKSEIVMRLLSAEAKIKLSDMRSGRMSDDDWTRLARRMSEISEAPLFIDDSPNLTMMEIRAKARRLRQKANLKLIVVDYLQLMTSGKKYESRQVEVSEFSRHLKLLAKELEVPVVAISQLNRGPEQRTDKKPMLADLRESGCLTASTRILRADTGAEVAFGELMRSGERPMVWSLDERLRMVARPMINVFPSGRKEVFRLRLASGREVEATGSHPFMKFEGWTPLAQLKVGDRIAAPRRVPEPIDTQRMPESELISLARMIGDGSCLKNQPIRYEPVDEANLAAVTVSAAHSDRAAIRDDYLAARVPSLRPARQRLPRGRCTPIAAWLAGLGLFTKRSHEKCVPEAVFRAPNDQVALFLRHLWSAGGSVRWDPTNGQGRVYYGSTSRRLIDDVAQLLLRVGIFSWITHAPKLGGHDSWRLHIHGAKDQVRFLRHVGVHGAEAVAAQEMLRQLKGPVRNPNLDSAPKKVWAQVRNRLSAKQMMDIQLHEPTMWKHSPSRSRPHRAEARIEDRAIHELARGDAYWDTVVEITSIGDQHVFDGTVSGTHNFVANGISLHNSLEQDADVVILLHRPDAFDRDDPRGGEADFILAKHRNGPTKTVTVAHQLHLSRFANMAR

[5] = target: Long-chain-fatty-acid--AMP ligase FadD28 (Mycobacterium tuberculosis, UniProt P9WQ59); assay: Fluorescence polarization aasay to screen for inhibitors that compete for the binding of FadD28 to a bisubstrate Measured in Biochemical System Using Plate Reader - 2147-01_Inhibitor_Dose_CherryPick_Activity.; type: functional, Mycobacterium tuberculosis H37Rv
[6] = target: T4, Sentrin-specific protease 1 (Homo sapiens, UniProt Q9P0U3); assay: Dose response confirmation of small molecule inhibitors of the catalytic domain of the SUMO protease, SENP1 in a FRET assay.; type: functional; details: read-out: IC50_Mean
T4 sequence (Q9P0U3 whole entry): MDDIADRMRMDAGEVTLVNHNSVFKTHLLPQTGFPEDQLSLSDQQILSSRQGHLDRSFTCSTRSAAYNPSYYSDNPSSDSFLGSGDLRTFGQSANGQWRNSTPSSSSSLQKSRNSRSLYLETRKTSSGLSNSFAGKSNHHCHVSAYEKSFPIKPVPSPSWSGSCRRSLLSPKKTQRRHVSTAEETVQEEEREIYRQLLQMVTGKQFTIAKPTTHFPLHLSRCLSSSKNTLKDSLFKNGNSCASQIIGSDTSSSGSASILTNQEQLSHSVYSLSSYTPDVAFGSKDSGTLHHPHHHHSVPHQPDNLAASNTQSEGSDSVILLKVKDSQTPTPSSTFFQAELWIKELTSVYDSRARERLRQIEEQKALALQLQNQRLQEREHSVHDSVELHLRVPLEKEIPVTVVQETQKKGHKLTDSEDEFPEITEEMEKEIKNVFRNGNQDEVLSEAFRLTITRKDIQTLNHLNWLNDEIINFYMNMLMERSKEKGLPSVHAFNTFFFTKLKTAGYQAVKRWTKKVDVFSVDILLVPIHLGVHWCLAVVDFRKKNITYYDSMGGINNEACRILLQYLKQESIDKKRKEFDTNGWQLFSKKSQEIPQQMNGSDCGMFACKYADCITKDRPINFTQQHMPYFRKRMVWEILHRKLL

[7] = target: T5, RNA-binding protein pos-1 (Caenorhabditis elegans, UniProt G5EF15); assay: disruptors of C. elegans POS-1 RNA interaction – biochemical, fluorescence polarization, dose response (AID 1964);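 also: purified POS-1 fused to maltose binding protein made in E. coli; potency of compounds blocking POS-1 binding to fluorescent RNA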
T5 sequence (G5EF15 whole entry): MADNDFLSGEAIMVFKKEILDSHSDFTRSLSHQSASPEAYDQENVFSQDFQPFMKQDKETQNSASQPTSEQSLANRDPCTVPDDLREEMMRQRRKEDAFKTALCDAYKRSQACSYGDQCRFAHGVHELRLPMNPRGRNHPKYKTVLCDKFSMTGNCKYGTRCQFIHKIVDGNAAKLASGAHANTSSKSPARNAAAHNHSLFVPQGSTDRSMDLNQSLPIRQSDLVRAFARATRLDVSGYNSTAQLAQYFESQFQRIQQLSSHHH

[8] = target: T6, Zinc finger protein mex-5 (Caenorhabditis elegans, UniProt Q9XUB2); assay: potency of MEX-5 RNA-binding blockers – biochemical, C. elegans, fluorescence polarization, dose response (AID 1960)
T6 sequence (Q9XUB2 whole entry): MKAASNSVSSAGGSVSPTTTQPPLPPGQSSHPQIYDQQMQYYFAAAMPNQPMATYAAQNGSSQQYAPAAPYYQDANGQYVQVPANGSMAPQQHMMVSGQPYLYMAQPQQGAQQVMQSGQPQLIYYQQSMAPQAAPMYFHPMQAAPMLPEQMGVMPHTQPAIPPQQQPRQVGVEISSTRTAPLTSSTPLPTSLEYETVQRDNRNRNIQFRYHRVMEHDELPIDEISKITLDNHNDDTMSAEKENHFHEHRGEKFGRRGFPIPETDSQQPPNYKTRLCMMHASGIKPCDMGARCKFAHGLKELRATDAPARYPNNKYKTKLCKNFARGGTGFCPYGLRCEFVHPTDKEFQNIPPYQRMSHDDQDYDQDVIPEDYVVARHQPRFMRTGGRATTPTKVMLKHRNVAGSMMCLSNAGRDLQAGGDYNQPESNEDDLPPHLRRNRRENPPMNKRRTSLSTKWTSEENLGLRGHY

[9] = target: T4, Sentrin-specific protease 1; assay: SENP1 catalytic domain blockers, concentration series – biochemical, kinetic FRET, dose response (AID 651697); type: functional; details: read-out: IC50_Mean
[10] = target: Histone-lysine N-methyltransferase NSD2 (Homo sapiens, UniProt O96028); type: biochemical
Nonstructural protein 1 = Nonstructural protein 1 (Influenza A virus, UniProt Q194T2); type: functional, Influenza A virus (A/California/07/2009(H1N1))
Cytochrome P450 2C9 = Cytochrome P450 2C9 (Homo sapiens, UniProt P11712)
[11] = HIV-1 AD8 envelope cell-cell fusion blockers – cherry-pick, dose response (AID 652062); type: functional, cell-based;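 also: luciferase signal from cell-cell fusion driven by HIV-1 clade B AD8 Env; potency is for inhibitors of fusion seen as a drop in luminescence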
[12] = off-target signal loss in HeLa-CEM21 co-culture – HeLa F-luc CTL cells, cherry-picked, counter-screen for HIV-1 Env fusion inhibitor project, dose response (AID 652040); type: functional, cell-based;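 also: potency for signal decrease marking cytotoxic or nonspecific inhibition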
[13] = Counterscreen for activators of the function of SWI/SNF related, matrix associated, actin dependent regulator of chromatin, subfamily a, member 2 (SMARCA2, BRM): Luminescence-based cell-based high throughput dose response assay to identify non-selective compounds using the VP16 reporter assay.; type: functional
[14] = target: T7, Mitochondrial peptide methionine sulfoxide reductase (Bos taurus, UniProt P54149); assay: Absorbance-based biochemical high throughput dose response assay for activators of Methionine sulfoxide reductase A (MsrA).; type: functional
T7 sequence (P54149 whole entry): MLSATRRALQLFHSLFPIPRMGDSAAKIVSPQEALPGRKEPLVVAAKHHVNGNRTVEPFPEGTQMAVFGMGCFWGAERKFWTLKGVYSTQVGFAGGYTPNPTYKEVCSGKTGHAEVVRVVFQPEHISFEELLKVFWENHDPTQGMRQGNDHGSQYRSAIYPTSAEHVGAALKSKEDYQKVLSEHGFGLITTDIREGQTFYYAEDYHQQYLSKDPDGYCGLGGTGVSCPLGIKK

[15] = target: SWI/SNF-related matrix-associated actin-dependent regulator of chromatin subfamily A member 2 (Homo sapiens, UniProt P51531); assay: Luminescence-based cell-based high throughput dose response assay to identify activators of the function of SWI/SNF related, matrix associated, actin dependent regulator of chromatin, subfamily a, member 2 (SMARCA2, BRM).; type: functional
Vero = assay: cells; type: functional; details: Chlorocebus sabaeus
Protein Wnt-3a = Protein Wnt-3a (Mus musculus, UniProt P27467); assay: SAR analysis of small molecule antagonists of Gli-SUFU in a Wnt3a luminescent reporter assay.; type: functional
[16] = general mammalian cell viability loss – activator set, cherry-pick, cytotoxicity control for miR-122 modulator project, dose response (AID 720690); type: functional, cell-based;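 also: HEK293T human cells scored for general mammalian cytotoxicity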
[17] = viability loss in A549 lung cancer cells – cell-based, cherry-picks, […], cytotoxicity control, dose response (AID 1053119); type: functional

Chain of Protein Wnt-3a (P27467 whole entry): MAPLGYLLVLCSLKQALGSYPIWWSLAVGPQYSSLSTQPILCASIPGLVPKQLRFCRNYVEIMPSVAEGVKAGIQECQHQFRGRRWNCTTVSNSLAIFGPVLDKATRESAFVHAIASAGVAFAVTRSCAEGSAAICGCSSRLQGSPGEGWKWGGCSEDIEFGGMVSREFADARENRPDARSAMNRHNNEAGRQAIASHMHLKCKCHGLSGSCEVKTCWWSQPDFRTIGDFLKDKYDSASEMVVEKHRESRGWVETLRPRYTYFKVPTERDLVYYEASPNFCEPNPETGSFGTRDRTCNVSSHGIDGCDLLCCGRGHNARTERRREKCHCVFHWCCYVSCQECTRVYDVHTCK
Chain of Long-chain-fatty-acid--AMP ligase FadD28 (P9WQ59 whole entry, the tested form may be a part): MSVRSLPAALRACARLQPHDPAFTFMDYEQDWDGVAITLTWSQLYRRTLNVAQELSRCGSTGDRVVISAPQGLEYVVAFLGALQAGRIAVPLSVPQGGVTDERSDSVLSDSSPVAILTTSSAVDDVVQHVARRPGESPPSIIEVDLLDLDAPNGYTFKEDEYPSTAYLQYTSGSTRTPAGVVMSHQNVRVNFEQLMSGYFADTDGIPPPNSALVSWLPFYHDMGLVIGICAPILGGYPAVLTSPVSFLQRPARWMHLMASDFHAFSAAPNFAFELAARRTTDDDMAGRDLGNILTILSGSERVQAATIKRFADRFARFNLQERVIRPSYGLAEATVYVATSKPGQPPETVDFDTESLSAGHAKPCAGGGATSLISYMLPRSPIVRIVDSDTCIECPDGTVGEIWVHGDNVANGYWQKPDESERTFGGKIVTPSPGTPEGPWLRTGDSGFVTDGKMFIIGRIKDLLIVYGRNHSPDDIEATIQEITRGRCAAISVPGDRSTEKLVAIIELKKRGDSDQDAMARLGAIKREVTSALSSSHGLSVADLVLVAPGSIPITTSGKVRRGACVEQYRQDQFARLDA
Chain of Arf-GAP with SH3 domain, ANK repeat and PH domain-containing protein 1 (Q9ULH1 whole entry, the tested form may be a part): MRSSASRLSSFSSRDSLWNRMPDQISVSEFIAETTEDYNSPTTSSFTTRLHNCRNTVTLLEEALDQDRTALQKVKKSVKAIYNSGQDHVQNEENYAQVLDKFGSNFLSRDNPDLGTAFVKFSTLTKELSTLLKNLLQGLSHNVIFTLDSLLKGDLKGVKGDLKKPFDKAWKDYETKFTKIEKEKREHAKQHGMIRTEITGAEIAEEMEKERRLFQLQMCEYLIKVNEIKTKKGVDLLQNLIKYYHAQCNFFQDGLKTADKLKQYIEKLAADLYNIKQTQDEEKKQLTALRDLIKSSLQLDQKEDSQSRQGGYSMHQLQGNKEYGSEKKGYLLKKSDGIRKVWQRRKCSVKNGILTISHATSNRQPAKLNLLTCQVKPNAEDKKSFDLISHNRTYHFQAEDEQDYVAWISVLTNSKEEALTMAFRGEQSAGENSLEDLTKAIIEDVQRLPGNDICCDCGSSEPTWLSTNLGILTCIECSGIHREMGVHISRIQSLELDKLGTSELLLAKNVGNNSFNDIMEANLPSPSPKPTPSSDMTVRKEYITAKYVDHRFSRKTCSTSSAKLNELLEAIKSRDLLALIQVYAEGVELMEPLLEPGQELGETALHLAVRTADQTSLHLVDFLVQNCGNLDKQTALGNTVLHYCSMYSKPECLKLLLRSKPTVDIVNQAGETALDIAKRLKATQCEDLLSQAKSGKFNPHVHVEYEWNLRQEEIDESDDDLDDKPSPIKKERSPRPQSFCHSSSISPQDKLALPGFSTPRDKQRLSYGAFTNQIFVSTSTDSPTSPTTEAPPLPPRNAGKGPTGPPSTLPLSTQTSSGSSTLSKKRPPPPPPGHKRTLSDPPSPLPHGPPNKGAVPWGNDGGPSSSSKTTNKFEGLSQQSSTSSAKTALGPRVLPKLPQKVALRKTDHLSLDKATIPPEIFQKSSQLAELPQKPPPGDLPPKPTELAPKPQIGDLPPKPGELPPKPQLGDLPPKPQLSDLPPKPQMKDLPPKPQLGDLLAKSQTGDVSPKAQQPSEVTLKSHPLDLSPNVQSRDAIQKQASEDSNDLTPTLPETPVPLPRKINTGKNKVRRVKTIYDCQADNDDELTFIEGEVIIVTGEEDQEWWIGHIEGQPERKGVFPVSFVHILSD
Chain of SWI/SNF-related matrix-associated actin-dependent regulator of chromatin subfamily A member 2 (P51531 whole entry): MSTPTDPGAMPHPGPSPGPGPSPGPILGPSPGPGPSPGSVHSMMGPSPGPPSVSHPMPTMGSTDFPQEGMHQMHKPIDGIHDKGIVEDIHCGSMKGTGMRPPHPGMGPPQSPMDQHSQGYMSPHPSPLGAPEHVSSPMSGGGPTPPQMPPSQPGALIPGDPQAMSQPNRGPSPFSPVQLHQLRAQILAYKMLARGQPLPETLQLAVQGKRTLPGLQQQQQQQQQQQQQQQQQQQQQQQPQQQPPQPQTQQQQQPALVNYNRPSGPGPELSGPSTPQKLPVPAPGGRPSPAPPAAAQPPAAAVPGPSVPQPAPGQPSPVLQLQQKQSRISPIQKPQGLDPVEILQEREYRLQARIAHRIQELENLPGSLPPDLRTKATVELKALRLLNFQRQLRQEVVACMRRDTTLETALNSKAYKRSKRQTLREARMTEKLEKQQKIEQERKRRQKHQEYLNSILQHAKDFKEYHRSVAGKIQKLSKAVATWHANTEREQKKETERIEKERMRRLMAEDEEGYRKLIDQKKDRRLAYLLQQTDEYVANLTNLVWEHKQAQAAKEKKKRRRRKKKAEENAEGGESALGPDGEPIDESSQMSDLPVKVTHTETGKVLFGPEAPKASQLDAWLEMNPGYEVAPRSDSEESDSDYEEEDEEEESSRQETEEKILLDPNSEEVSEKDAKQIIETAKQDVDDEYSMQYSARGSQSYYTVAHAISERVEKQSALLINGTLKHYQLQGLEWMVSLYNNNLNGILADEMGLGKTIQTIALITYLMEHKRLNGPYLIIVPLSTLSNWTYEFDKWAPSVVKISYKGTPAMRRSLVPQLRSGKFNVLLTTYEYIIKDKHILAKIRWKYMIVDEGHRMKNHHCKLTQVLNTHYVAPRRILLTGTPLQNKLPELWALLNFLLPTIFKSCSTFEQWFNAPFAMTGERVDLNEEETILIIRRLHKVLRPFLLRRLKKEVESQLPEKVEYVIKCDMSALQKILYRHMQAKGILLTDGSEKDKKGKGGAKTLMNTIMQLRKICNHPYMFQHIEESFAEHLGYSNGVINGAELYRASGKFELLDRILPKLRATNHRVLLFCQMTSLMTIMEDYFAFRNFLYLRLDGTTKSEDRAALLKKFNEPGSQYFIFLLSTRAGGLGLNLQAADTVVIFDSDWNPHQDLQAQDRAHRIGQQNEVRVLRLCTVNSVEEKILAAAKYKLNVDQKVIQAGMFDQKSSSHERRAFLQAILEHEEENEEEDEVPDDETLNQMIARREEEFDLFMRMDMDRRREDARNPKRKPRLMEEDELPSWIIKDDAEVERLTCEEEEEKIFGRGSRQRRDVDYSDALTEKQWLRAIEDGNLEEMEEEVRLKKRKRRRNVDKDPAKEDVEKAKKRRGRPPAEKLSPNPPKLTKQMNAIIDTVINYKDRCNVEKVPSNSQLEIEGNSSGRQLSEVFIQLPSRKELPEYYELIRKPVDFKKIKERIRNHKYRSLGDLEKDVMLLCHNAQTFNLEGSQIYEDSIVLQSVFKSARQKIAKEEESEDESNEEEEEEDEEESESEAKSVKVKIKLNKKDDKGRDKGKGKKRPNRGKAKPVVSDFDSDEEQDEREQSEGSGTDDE
Chain of Cytochrome P450 2C9 (P11712 whole entry, the tested form may be a part): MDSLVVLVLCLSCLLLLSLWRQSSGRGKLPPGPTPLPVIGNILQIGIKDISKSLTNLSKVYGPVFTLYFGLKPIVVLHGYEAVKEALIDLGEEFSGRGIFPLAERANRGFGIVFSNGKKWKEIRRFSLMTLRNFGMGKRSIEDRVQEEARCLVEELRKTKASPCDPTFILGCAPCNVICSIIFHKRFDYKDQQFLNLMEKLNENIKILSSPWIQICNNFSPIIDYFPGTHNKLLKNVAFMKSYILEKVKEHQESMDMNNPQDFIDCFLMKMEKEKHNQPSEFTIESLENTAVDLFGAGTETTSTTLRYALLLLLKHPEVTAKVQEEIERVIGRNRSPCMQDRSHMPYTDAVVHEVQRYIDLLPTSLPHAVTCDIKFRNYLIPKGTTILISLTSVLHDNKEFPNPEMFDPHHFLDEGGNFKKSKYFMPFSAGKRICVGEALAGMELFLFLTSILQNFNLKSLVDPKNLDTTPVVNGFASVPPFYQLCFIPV
Chain of Nonstructural protein 1 (Q194T2 whole entry): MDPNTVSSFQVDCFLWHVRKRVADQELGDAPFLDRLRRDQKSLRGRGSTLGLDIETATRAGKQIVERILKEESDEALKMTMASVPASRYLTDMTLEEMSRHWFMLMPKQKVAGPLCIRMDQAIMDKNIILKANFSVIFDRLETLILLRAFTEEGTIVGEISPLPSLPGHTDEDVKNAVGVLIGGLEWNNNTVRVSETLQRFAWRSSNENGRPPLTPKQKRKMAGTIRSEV
Chain of DNA repair protein RAD52 homolog (P43351 whole entry): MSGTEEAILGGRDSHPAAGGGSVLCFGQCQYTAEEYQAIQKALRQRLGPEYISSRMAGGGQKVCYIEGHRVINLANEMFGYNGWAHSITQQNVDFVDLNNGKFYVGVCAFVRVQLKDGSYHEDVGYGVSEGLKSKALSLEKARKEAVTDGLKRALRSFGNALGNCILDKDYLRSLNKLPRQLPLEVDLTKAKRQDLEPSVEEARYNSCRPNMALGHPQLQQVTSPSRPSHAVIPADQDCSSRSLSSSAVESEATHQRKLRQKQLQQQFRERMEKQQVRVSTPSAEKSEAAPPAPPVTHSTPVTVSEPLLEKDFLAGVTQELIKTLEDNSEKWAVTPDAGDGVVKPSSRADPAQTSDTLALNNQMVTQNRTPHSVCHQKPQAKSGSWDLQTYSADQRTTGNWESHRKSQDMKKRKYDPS

## O=C(Nc1ccc2oc(=O)ccc2c1)c1ccc(-c2ccc(Cl)cc2)o1
[1]
  IC50: 9.51 µM (active)
[2]
  IC50: 18.2 µM (not active)

## Nc1ccc2[nH]cnc2c1
[3]
  AC50: 6.22 µM (active)
Protein RecA
  EC50: 23.6 µM (active)
[4]
  AC50: 2.92 µM (active)

## Nc1nnc(SCCCOc2ccc(F)cc2)s1
[5]
  AC50: 46.6 µM (active)

## COc1ccc2nc3ccccc3nc2c1NC(=O)c1ccc(Br)cc1
[6]
  IC50: 9.47 µM (active)
[7]
  EC50: 6.41 µM (active)
[8]
  EC50: 6.66 µM (inconclusive)
[9]
  IC50: 10 µM (active)

## COC1=C(Nc2ccc(OC)cc2)C(=O)c2ccccc2C1=O
[10]
  AC50: 8.98 µM (active)
Nonstructural protein 1
  IC50: 9.3 µM (active)

## Cc1ccc(N=C(S)N(C)Cc2cn(C)c3ccccc23)cc1
[5]
  AC50: 78.8 µM (active)

## O=C(Nc1ccc(S(=O)(=O)N2CCCC2)cc1)c1ccc(CN2CCOCC2)cc1
Cytochrome P450 2C9
  AC50: 10 µM (inconclusive)
[11]
  AC50: 6.7 µM (active)
[12]
  AC50: > 70 µM (inactive)

## COc1cc2sc3ccc(C#Cc4ccccn4)cc3c(=O)c2cc1OC
[1]
  IC50: 22.9 µM (inactive)

## O=C(Nc1cccc([N+](=O)[O-])c1)c1ccc([N+](=O)[O-])o1
[13]
  EC50: > 91.2 µM (inactive)
[14]
  EC50: > 104 µM (inactive)
[15]
  EC50: > 91.2 µM (inactive)
Vero
  CC50: 12 µM (active)

## Cc1ccc(C(=O)Nc2cc(N3CCCCC3)ncn2)cc1
Protein Wnt-3a
  IC50: > 21.8 µM (inactive)

## COc1ccc(CN(C)C[C@@H]2OCCCC[C@H](C)Oc3ccc(NC(=O)Nc4ccc(C(F)(F)F)cc4)cc3C(=O)N([C@H](C)CO)C[C@H]2C)cc1
[16]
  AC50: 16.6 µM (active)

## COc1cc(OC)cc(C(=O)Nc2cc(N3CCCCC3)ncn2)c1
Protein Wnt-3a
  IC50: > 21.8 µM (inactive)

## CN(C)C(=O)c1ccc(-c2ccc3c(c2)[C@H]2[C@H](CCN2C(=O)c2ccc(F)cc2)[C@@H](CO)N3C)cc1
[17]
  AC50: > 47 µM (inactive)

## O=C1NC(=O)/C(=C/c2c(O)ccc3ccccc23)N1
[6]
  IC50: 4.34 µM (active)
[9]
  IC50: 6.2 µM (active)

## C=C1C(=O)[C@]23C[C@H]1CC[C@H]2[C@]1(C)[C@@H](O)CC[C@@](C)(C(=O)O)[C@H]1C[C@@H]3O [GEOPYXIN A]
[13]
  EC50: > 91.1 µM (inactive)
[15]
  EC50: > 91.1 µM (inactive)
